Legend:
purified HLA-A2 = system: purified HLA-A2; parameters: species or system human; conditions: >50, 20–50, <20% binding at 10^−6 mol/l = high, intermediate, low binders
PBMCs = format: cell-based, human

| Substance | Binding to HLA-A2 (in words) (purified HLA-A2) | Frequencies of recognition, Control subjects (PBMCs) | Frequencies of recognition, Patients (PBMCs) | Responses (stimulation score), Control subjects (PBMCs) | Responses (stimulation score), Patients (PBMCs) | Frequencies of recognition, C (PBMCs) | Frequencies of recognition, D (PBMCs) | Frequencies of recognition, L (PBMCs) | Frequencies of recognition, R (PBMCs) | Recognized in % of patients (PBMCs) [%] | Recognized in % of recent-onset patients (PBMCs) | Responses (stimulation score), C (PBMCs) | Responses (stimulation score), L (PBMCs) | Responses (stimulation score), R (PBMCs) | Responses (stimulation score), D (PBMCs) |
| --- | --- | --- | --- | --- | --- | --- | --- | --- | --- | --- | --- | --- | --- | --- | --- |
| Peptide 1–8: human preproinsulin leader sequence peptide, residues 1–8, MALWMRLL | no significant binding |  |  |  |  |  |  |  |  |  |  |  |  |  |  |
| AAVDLSHFL [Nef 83–91, reference compound] |  | 0/4 | 0/12 | 0 (0–5) | 3 (0–20) |  |  |  |  |  |  |  |  |  |  |
| ALWGPDPAAA [15–24] | high binders | 0/6 | 8/17 | 0 (0–0) | 12.2 (0–52.8) | 0/4 | 0/2 | 1/4 | 7/13 | > 40 | > 50% | 0 (0–0) | 12.8 (2.4–32.2) | 8.7 (0–52.8) |  |
| EWRFDSRLA [Nef 182–189, reference compound] |  | 0/3 | 0/8 | 0 (0–0) | 1 (0–35) |  |  |  |  |  |  |  |  |  |  |
| RLLPLLALL [6–14] | high binders | 0/6 | 5/18 | 4.7 (3.9–7.2) | 30.6 (7.8–144) | 0/4 | 0/2 | 1/4 | 4/14 |  |  | 4.7 (3.9–7.2) | 28.9 (21.1–51.1) | 30.6 (7.8–144) |  |
| ELRSRYWAI [NP 380–388, reference compound] |  | 2/7 | 7/13 | 5 (2–131) | 8 (0–119) |  |  |  |  |  |  |  |  |  |  |
| RLLPLLALLAL [6–16] | high binders | 0/12 | 9/20 | 0 (0–9.5) | 7.3 (0–111.7) | 0/8 | 0/4 | 2/4 | 7/16 | > 40 | at least 30% | 0 (0–9.5) | 12.2 (10–54.5) | 5 (0–111.7) | 0 (0–0) |
